Source: patent US20170218449A1, “ANALYTICAL METHODS AND ARRAYS FOR USE IN THE SAME” (SENZAGEN AB, priority 2010, published 2017)
Values after ≈ are worked out from the molar mass of the structure shown. Where two headings read alike, the source gives them in different places.

Assays:
MUTZ-3 cells [1] = test: cytotoxicity by Propidium Iodide, relative viability (Rv90)
Description: A panel of chemicals consisting of 20 sensitizers and 20 non-sensitizers were used for cell stimulations. […] All chemicals were from Sigma-Aldrich, St. Louis, Mo., USA. Compounds were dissolved in either Dimethyl sulfoxide (DMSO) or distilled water. Prior to stimulations, the cytotoxicity of all compounds were monitored, using Propidium Iodide (PI) (BD Biosciences, San Diego, Calif.) using protocol provided by the manufacturer. The relative viability of stimulated cells was calculated as
For toxic compounds, the concentration yielding 90% relative viability (Rv90) was used. For untoxic compounds, a concentration of 500 μM was used when possible. For non-toxic compounds that were insoluble at 500 μM in medium, the highest soluble concentration was used. For compounds dissolved in DMSO, the in-well concentration was 0.1% DMSO.

[2] = tested on: draining lymph nodes of mice; details: cited from earlier work
MUTZ-3 cells [3] = test: transcriptional profiling (Affymetrix Human Gene 1.0 ST arrays) with PCA of chemically stimulated cells; format: cell-based
Description: The genomic expression arrays were used to test 20 sensitizers and 20 non-sensitizers, in triplicates, and vehicle controls such as DMSO and distilled water, the latter in twelve replicates.
The human myeloid leukaemia-derived cell line MUTZ-3 (DSMZ, Braunschweig, Germany) was maintained in a-MEM (Thermo Scientific Hyclone, Logan, Utah) supplemented with 20% (volume/volume) fetal calf serum (Invitrogen, Carlsbad, Calif.) and 40 ng/ml rhGM-CSF (Bayer HealthCare Pharmaceuticals, Seattle, Wash.), as described [10]. Prior to each experiment, the cells were immunophenotyped using flow cytometry as a quality control. Cells were seeded in 6-well plates at 200.000 cells/ml. Stock solutions of each compound was prepared in either DMSO or distilled water, and were subsequently diluted so the in-well concentrations corresponded to the Rv90 value, and in-well concentrations of DMSO were 0.1%. Cells were incubated for 24h at 37° C. and 5% CO2. Thereafter, cells were harvested and analysed with flow cytometry. In parallel, harvested cells were lysed in TRIzol reagent (Invitrogen) and stored at −20° C. until RNA extraction. Stimulations with chemicals were performed in three individual experiments, so that triplicates samples were obtained.
RNA isolation and gene chip hybridization was performed as described [22]. […] The preparation of labeled sense DNA was performed according to Affymetrix GeneChip Whole Transcript (WT) Sense Target Labeling Assay (100 ng Total RNA Labeling Protocol) using the recommended kits and controls (Affymetrix, Santa Clara, Calif.). Hybridization, washing and scanning of the Human Gene 1.0 ST Arrays were performed according to the manufacturer's protocol (Affymetrix).
The microarray data were normalised and quality checked with the RMA algorithm, using Affymetrix Expression Console (Affymetrix).

human [4] = details: in vivo; cited from earlier work
CD86 = CD86 cell surface expression by flow cytometry after chemical stimulation; format: cell-based, human; details: 24 h stimulation, frequency of CD86-positive cells, paired Student's t test
Description: Cell surface expression levels of CD86 were monitored after stimulation with chemicals for 24 h. FIG. 2A). Chemical-induced upregulation of CD86, in terms of changes in frequency of positive cells, were determined by flow cytometry, as exemplified by the comparison of 2-aminophenol-stimulated cells (right dotplot) and unstimulated controls (left dotplot). Results are shown from one representative experiment out of three. Gates were set to exclude debris and dead cells, and quadrants were established by comparing with relevant isotype controls. FIG. 2B) Compilation of frequencies of CD86-positive cells after 24 h of stimulation. Statistical analysis was performed using paired Student's t test. *p<0.05, # p<0.01. NA, not analysed.
CD86 is the most extensively studied biomarker for sensitization to date, in cell-systems such as monocyte derived dendritic cells (MoDCs) or dendritic cell-like human cell lines and their progenitors, such as THP-1, U-937 and KG-1. Thus, as a reference, cell surface expression of CD86 was measured with flow cytometry after 24h stimulation with 20 sensitizers and 20 non-sensitizers, as well as with vehicle controls (Table 1). […]. […] Consequently, CD86 cannot classify skin sensitizers, using a cell based system such as MUTZ-3.
The human myeloid leukaemia-derived cell line MUTZ-3 (DSMZ, Braunschweig, Germany) was maintained in a-MEM (Thermo Scientific Hyclone, Logan, Utah) supplemented with 20% (volume/volume) fetal calf serum (Invitrogen, Carlsbad, Calif.) and 40 ng/ml rhGM-CSF (Bayer HealthCare Pharmaceuticals, Seattle, Wash.), as described. Prior to each experiment, the cells were immunophenotyped using flow cytometry as a quality control. Cells were seeded in 6-well plates at 200.000 cells/ml. Stock solutions of each compound was prepared in either DMSO or distilled water, and were subsequently diluted so the in-well concentrations corresponded to the Rv90 value, and in-well concentrations of DMSO were 0.1%. Cells were incubated for 24h at 37° C. and 5% CO2. Thereafter, cells were harvested and analysed with flow cytometry. In parallel, harvested cells were lysed in TRIzol reagent (Invitrogen) and stored at −20° C. until RNA extraction. Stimulations with chemicals were performed in three individual experiments, so that triplicates samples were obtained.
All cell surface staining and washing steps was performed in PBS containing 1% BSA (w/v). Cells were incubated with specific mouse mAbs for 15 min at 4° C. The following mAbs were used for flow cytometry: FITC-conjugated CD1a (DakoCytomation, Glostrup, Denmark), CD34, CD86, and HLA-DR (BD Biosciences), PE-conjugated CD14 (DakoCytomation), CD54 and CD80 (BD Biosciences). Mouse IgG1, conjugated to FITC or PE were used as isotype controls and PI was used to assess cell viability (BD Biosciences). FACSDiva software was used for data acquisition with FACSCanto II instrument (BD Bioscience). 10,000 events were acquired and gates were set based on light scatter properties to exclude debris and nonviable cells. Further data analysis was performed using FCS Express V3 (De Novo Software, Los Angeles, Calif.).

human [5] = details: in vivo; cited from earlier work; remark: listed apart in the source
Max solubility in medium = details: vehicle DMSO or water
physchem = details: plasma or biological fluid, kinetic from dmso stock
[6] = sensitizing potency category based on murine LLNA classification
[7] = 24 h stimulation, one or more replicate
[8] = concentration yielding 90% relative viability, PI staining

Q: With `C=O` [Formaldehyde] as the compound, how does the “Rv90” value (MUTZ-3 cells [1]; human) read?
A: 80 µM

Q: And the Potency ([2]; mouse, in vivo)?
A: Strong [15]

Q: What does the source list for `NCCN` [Ethylendiamine]?
A: Potency [2, 6]: Moderate [14]; PCA grouping, 1010 transcripts (sensitizing vs. non-sensitizing ANOVA), FIG. 3B (MUTZ-3 cells [3]; [7]): group together with the control group

Q: Which “Rv90” value (MUTZ-3 cells [1]; human) does the source give for `O=CC=Cc1ccccc1` [Cinnamaldehyde] here?
A: 120 µM

Q: What about the HMT (human [4]) of the same compound?
A: +

Q: And the “CD86 cell surface expression” value (CD86)?
A: significantly up-regulated

Q: And the HPTA (human [5])?
A: +

Q: Which “CD86 cell surface expression” value (CD86) does the source give for `Nc1ccc(N)c([N+](=O)[O-])c1` [2-nitro-1,4-Phenylendiamine] here?
A: significantly up-regulated

Q: What about the “PCA grouping, 1137 genes (comparing the different stimulations), FIG. 3D” value (MUTZ-3 cells [3]; 24 h stimulation, triplicates) of the same compound?
A: replicates that group together, separate from the negative group

Q: With `Oc1cccc(O)c1` [Resorcinol] as the compound, how does the Potency [2, 6] read?
A: Moderate [29]

Q: And the “CD86 cell surface expression” value (CD86)?
A: significantly up-regulated

Q: And the “PCA grouping, 1010 transcripts (sensitizing vs. non-sensitizing ANOVA), FIG. 3B” value (MUTZ-3 cells [3]; [7])?
A: group together with the control group

Q: What about the “PCA grouping, 1137 genes (comparing the different stimulations), FIG. 3D” value (MUTZ-3 cells [3]; 24 h stimulation, triplicates) of the same compound?
A: replicates that group together, separate from the negative group

Q: For `CCCCCCCC/C=C\CCCCCCCC(=O)OCCOCC(OCCO)C1OCC(OCCO)C1OCCO` (centres unmarked) [Tween 80], which “PCA grouping, 1010 transcripts (sensitizing vs. non-sensitizing ANOVA), FIG. 3B” value (MUTZ-3 cells [3]; [7]) is on record?
A: tend to group with the sensitizers

Q: With `O=[N+]([O-])c1ccc(Cl)c([N+](=O)[O-])c1` [2,4-Dinitrochlorobenzene] as the compound, how does the “Rv90” value (MUTZ-3 cells [1]; [8]) read?
A: 4 µM

Q: What about the Potency [2, 6] of the same compound?
A: Extreme [15]

Q: And the “CD86 cell surface expression” value (CD86)?
A: significantly up-regulated

Q: And the “PCA grouping, 1137 genes (comparing the different stimulations), FIG. 3D” value (MUTZ-3 cells [3]; 24 h stimulation, triplicates)?
A: replicates that group together, separate from the negative group

Q: For `CCO/C=C1\N=C(c2ccccc2)OC1=O` [Oxazolone], which Potency ([2]; mouse, in vivo) is on record?
A: Extreme [15]

Q: For `C=CC(=O)OCCO` [2-Hydroxyethyl acrylate], which “Rv90” value (MUTZ-3 cells [1]; [8]) is on record?
A: 100 µM

Q: What about the “CD86 cell surface expression” value (CD86) of the same compound?
A: significantly up-regulated

Q: What about the “PCA grouping, 1137 genes (comparing the different stimulations), FIG. 3D” value (MUTZ-3 cells [3]; 24 h stimulation, triplicates) of the same compound?
A: replicates that group together, separate from the negative group

Q: For `Nc1ccccc1O` [2-Aminophenol], which “Rv90” value (MUTZ-3 cells [1]; [8]) is on record?
A: 100 µM

Q: And the Potency [2, 6]?
A: Strong [27]

Q: What about the “CD86 cell surface expression” value (CD86) of the same compound?
A: significantly up-regulated

Q: What about the “PCA grouping, 1137 genes (comparing the different stimulations), FIG. 3D” value (MUTZ-3 cells [3]) of the same compound?
A: replicates that group together, separate from the negative group

Q: For `O=Cc1ccccc1` [Benzaldehyde], which “Max solubility” value (Max solubility in medium) is on record?
A: 250 µM

Q: Which Potency [2, 6] does the source give for `CC1(C)S[C@@H]2[C@H](NC(=O)Cc3ccccc3)C(=O)N2[C@H]1C(=O)O` [Penicillin G] here?
A: Weak [28]

Q: And the “PCA grouping, 1010 transcripts (sensitizing vs. non-sensitizing ANOVA), FIG. 3B” value (MUTZ-3 cells [3]; [7])?
A: group together with the control group

Q: What does the source list for `Sc1nc2ccccc2s1` [2-Mercaptobenzothiazole]?
A: Potency [2, 6]: Moderate [27]; CD86 cell surface expression (CD86): significantly up-regulated; PCA grouping, 1137 genes (comparing the different stimulations), FIG. 3D (MUTZ-3 cells [3]; 24 h stimulation, triplicates): replicates that group together, separate from the negative group

Q: With `C=CCc1ccc(O)c(OC)c1` [Eugenol] as the compound, how does the “Rv90” value (MUTZ-3 cells [1]; human) read?
A: 300 µM

Q: What about the Potency [2, 6] of the same compound?
A: Weak [28]

Q: And the “PCA grouping, 1010 transcripts (sensitizing vs. non-sensitizing ANOVA), FIG. 3B” value (MUTZ-3 cells [3]; [7])?
A: group together with the control group

Q: For `CCCCCCC(C=O)=Cc1ccccc1` [Hexylcinnamic aldehyde], which Potency [2, 6] is on record?
A: Moderate [15]

Q: And the “PCA grouping, 1010 transcripts (sensitizing vs. non-sensitizing ANOVA), FIG. 3B” value (MUTZ-3 cells [3]; [7])?
A: group together with the control group

Q: For `Nc1ccc(N)cc1` [p-Phenylendiamine], which “Rv90” value (MUTZ-3 cells [1]; [8]) is on record?
A: 75 µM

Q: And the Potency [2, 6]?
A: Strong [28]

Q: What about the “CD86 cell surface expression” value (CD86) of the same compound?
A: significantly up-regulated

Q: And the “PCA grouping, 1137 genes (comparing the different stimulations), FIG. 3D” value (MUTZ-3 cells [3]; 24 h stimulation, triplicates)?
A: replicates that group together, separate from the negative group

Q: And the solubility (physchem)?
A: 566 µM (≈ 61.2 µg/mL)

Q: What does the source list for `[K+].[K+].[O]=[Cr](=[O])([O-])[O][Cr](=[O])(=[O])[O-]` [Potassium dichromate]?
A: Potency [2, 6]: Extreme [14]; PCA grouping, 1137 genes (comparing the different stimulations), FIG. 3D (MUTZ-3 cells [3]): discrete profile

Q: With `CCCCCCCC(=O)O` [Octanoic acid] as the compound, how does the “PCA grouping, 1010 transcripts (sensitizing vs. non-sensitizing ANOVA), FIG. 3B” value (MUTZ-3 cells [3]; [7]) read?
A: tend to group with the sensitizers

Q: With `O=CC=O` [Glyoxal] as the compound, how does the “Rv90” value (MUTZ-3 cells [1]; [8]) read?
A: 300 µM

Q: And the Potency ([2]; mouse, in vivo)?
A: Moderate [27]

Q: What about the “PCA grouping, 1010 transcripts (sensitizing vs. non-sensitizing ANOVA), FIG. 3B” value (MUTZ-3 cells [3]; [7]) of the same compound?
A: group together with the control group

Q: With `CC=Cc1ccc(O)c(OC)c1` [Isoeugenol] as the compound, how does the “Rv90” value (MUTZ-3 cells [1]; human) read?
A: 300 µM

Q: And the Potency [2, 6]?
A: Moderate [28]

Q: What about the “PCA grouping, 1010 transcripts (sensitizing vs. non-sensitizing ANOVA), FIG. 3B” value (MUTZ-3 cells [3]; [7]) of the same compound?
A: group together with the control group

Q: For `CCCCCCCCCCCCOS(=O)(=O)[O-].[Na+]` [Sodium dodecyl sulphate], which “Rv90” value (MUTZ-3 cells [1]; [8]) is on record?
A: 200 µM

Q: Which “PCA grouping, 1010 transcripts (sensitizing vs. non-sensitizing ANOVA), FIG. 3B” value (MUTZ-3 cells [3]) does the source give for `Oc1ccccc1` [Phenol] here?
A: tend to group with the sensitizers

Q: For `OC/C=C/c1ccccc1` [Cinnamic alcohol], which Potency [2, 6] is on record?
A: Weak [27]

Q: What about the “PCA grouping, 1137 genes (comparing the different stimulations), FIG. 3D” value (MUTZ-3 cells [3]; 24 h stimulation, triplicates) of the same compound?
A: replicates that group together, separate from the negative group
